“Also recorded” adds a separate entry of the source.
Assays:
[1] = test system: PBMCs from normal or HCV infected subjects; assay: IFN-α secretion by PBMC with Intron A, Ribavirin or CpG alone or in combination (ELISA); format: cell-based, human
Excerpt: (§1) All oligonucleotide stocks were resuspended in TE buffer at pH 8.0 (OmniPer®; EM Science, Gibbstown, N.J.). Dilutions of various ODNs were made in RPMI 1640 complete media (Gibco BRL, Grand Island, N.Y.) containing 10% heat inactivated, normal human AB serum (Wisent Inc, St. Bruno, QC) and 1% penicillin/streptomycin (Gibco BRL, Grand Island, N.Y.) just prior to their use in cell assays. For the exogenous IFN-α synergy experiments, Intron A (Interferon Alfa-2b, DIN 02223406, Schering Canada Inc., Pointe-Claire, Quebec, Canada) was added to the ODN solutions to give final concentrations of 125 or 1000 IU/ml. Ribavirin (CAS 36791-04-5, Calbiochem, CN Biosciences Inc., La Jolla, Calif., USA) was reconstituted with sterile distilled water to produce a 500 μm stock and diluted in media as described above, to give a final concentration of 5 μm in wells. Cells were incubated at 37° C. with 5% CO2. After 48 h, cell supernatants were collected from each well and frozen at −80° C.
(§2) Peripheral blood mononuclear cells (PBMCs) were purified by centrifugation over Ficoll-Hypaque (Amersham Pharmacia Biotech, Uppsala, Sweden) at 400×g for, 35 min. Cells were resuspended at a concentration of 10×10^6/ml in RPMI complete media containing 10% normal human AB serum (heat inactivated) and 1% penicillin/streptomycin.
(§3) Freshly isolated PBMCs were resuspended at 10×10^6/ml (2× final concentration) and 100 μl of cells were added to each well of a 96 well flat-bottom plate containing an equal volume of ODN solution (2× final desired concentration). A range of concentrations (1, 3, 6 μg/ml) was tested for each ODN. Cells were incubated at 37° C. with 5% CO2. After 48 h, cell supernatants were collected from each well and frozen at −80° C. until assayed.
(§4) IFN-α, IP-10, IL-10 and IFN-levels in supernatants were measured using commercial ELISA Kits (R&D Systems, Minneapolis, Minn., USA; IP-10, Cat# DIP 100, IL-10, Cat# D1000, IFN-g Cat# DIF50 or PBL Biomedical, IFN-α Cat# 4110S). When measured ELISA values were below the detection limit of the kit as specified by the manufacturer, a value equal to the lowest detectable limit was entered into data tables.

[2] = test system: PBMCs from normal or HCV-infected subjects; assay: IFN-γ secretion by PBMC after 48 h with CpG ODN (ELISA); format: cell-based, human; details: HCV-infected and normal PBMCs similar, FIG. 5/6
Experimental: as §2, §3, §4

[3] = test system: PBMCs from HCV-infected subjects; assay: IFN-α secretion by PBMC from HCV chronic carriers after 48 h with CpG ODN (ELISA); format: cell-based, human; details: for R, linear regression of number of pDC against amount of IFN-α secreted: HCV infected subjects, pDC number by FACS; for IFN-α secretion level: PBMC from HCV chronic carriers, 48 h, FIG. 1/3/4
Excerpt: as §1, §2, §3, §4

[4] = test system: PBMCs from normal subjects; assay: IFN-α secretion by PBMC from normal subjects after 48 h with CpG ODN (ELISA); format: cell-based, human; details: for IFN-α secretion level: PBMC from normal volunteers, 48 h, FIG. 1/3; for R, linear regression of number of pDC against amount of IFN-α secreted: normal subjects, pDC number by FACS
Excerpt: as §1, §2, §3, §4

[5] = test system: B cells in PBMCs from HCV-infected or normal donors; assay: B-cell proliferation (3H-thymidine, stimulation index); format: cell-based, human; details: HCV-infected and normal populations, 5 days, FIGS. 8 and 9
Experimental: as §2
Cells were isolated as described above and resuspended at 1×10^6/ml in complete RPMI media 100 μl of cells were added to each well of round-bottom 96 well plates. ODN solutions (100 μl) were added to wells to give the selected range of final concentrations (1, 3, 6 μg/ml). Cells were cultured for 5 days and then pulsed with ^3H-Thymidine (1 μCi/well) for 18 h, before harvesting onto filter paper for measuring radioactivity. Results are reported as stimulation index (SI) with respect to untreated media control.

[6] = test system: PBMCs from normal or HCV-infected subjects; assay: IP-10 secretion by PBMC after 48 h with CpG ODN (ELISA); format: cell-based, human; details: similar in normal subjects and HCV chronic carriers, FIG. 7
Experimental: as §2, §3, §4

[7] = adjuvant to a commercial hepatitis B vaccine, phase I/II; cited from earlier work

Compound | induction of IFN-α secretion ([1]; HCV-infected PBMCs, on their own or together, FIG. 11) | induction of IFN-α secretion ([1]; PBMCs from normal or HCV infected subjects, alone or in combination) | effect on the efficacy of CpG ([1]; combined with CpG ODN) | immunostimulatory activity ([1]; human PBMCs) | endogenous IFN-α production ([1]; in combination with Intron A) | synergy with exogenous IFN-α for IFN-α secretion ([1]; PBMCs from HCV infected subjects, combination with Intron-A) | IFN-γ secretion level [2] | R, linear regression of number of pDC against amount of IFN-α secreted [3] | IFN-α secretion level ([3]; listed as C) | IFN-α secretion level [4] | R, linear regression of number of pDC against amount of IFN-α secreted [4] | B cell stimulation [5] | IP-10 secretion level [6] | IFN-α induced relative to the normal level ([3]; HCV chronic carrier PBMC versus normal PBMC, FIG. 1) | IFN-α secretion level [3] | IFN-α secretion level ([3]; listed as B) | IFN-α secretion level ([3]; listed as Class B) | function as vaccine adjuvant [7]
NC(=O)c1ncn([C@@H]2O[C@H](CO)[C@@H](O)[C@H]2O)n1 [Ribavirin] | Neither Ribavirin nor Intron A, on their own or together, resulted in the induction of IFN-α secretion | Neither commercial Intron-A (IFN-α-2b) nor Ribavirin, alone or in combination, were capable of inducing IFN-α secretion | reduced the efficacy of CpG | no immunostimulatory activity | did not enhance endogenous IFN-α production | – | – | – | – | – | – | – | – | – | – | – | – | –
TCGTCGTTTTCGGCGGCCGCCG (chemistry not given here) [SEQ ID NO. 4, C class CpG ODN] | – | – | – | – | – | synergy | high concentrations | 0.08 | the same as those obtained with the normal PBMCs; also recorded: higher levels | moderately high levels | 0.58 | strongly activated B cells | next highest | – | – | – | – | –
G-G-GGACGACGTCGTGG-G-G-G-G-G (DNA GGGGACGACGTCGTGGGGGGG; chemistry not given here) [SEQ ID NO. 1, A class CpG ODN] | – | – | – | – | – | – | low levels | 0.02 | – | very high levels | 0.43 | poor stimulator of B cells | Highest levels | about 50% | higher levels | – | – | –
TCGTCGTTTTGTCGTTTTGTCGTT [SEQ ID NO. 2] | – | – | – | – | – | – | moderate amounts | – | – | only low levels | – | strongly activated B cells | lowest | – | – | the same as those obtained with the normal PBMCs | lower levels | functions well as a vaccine adjuvant

— patent US7998492B2, “Methods and products related to treatment and prevention of hepatitis C virus infection” (Coley Pharmaceutical Group, Inc., priority 2002, dated 2011)
